{
  "source": "patent US20260286287A1",
  "about": "“NOVEL BACTERIAL STRAIN USEFUL FOR TREATING CUTANEOUS INFLAMMATION” (PIERRE FABRE DERMO-COSMETIQUE, priority 2023, published 2026)",
  "key": {"[1]": {"system": "normal human epidermal keratinocytes (NHEK) stimulated by an inflammatory cytokine mix (IL-4+IL-13+IL-22+TNF-α)", "test": "Gene expression (RT-qPCR) in cytokine-stimulated normal human epidermal keratinocytes, in vitro model of chronic atopic dermatitis", "type": "cell-based", "procedure": "The effects of the bacterial extracts prepared in example 3 (i.e., L0, BL0, S0 and ES0) on gene expression were assessed with normal human epidermal keratinocytes (NHEK) which have been stimulated by an inflammatory cytokine mix (IL-4+IL-13+IL-22+TNF-α), a particularly useful model representative of the chronic phase of atopic dermatitis.\nKeratinocytes were seeded in 24-well plates and grown for 24 hours in growth medium with culture conditions at 37° C. and 5% C02. The growth medium comprised Keratinocyte SFM (Serum Free Medium) supplemented with Epidermal Growth Factor (EGF) 0.25 ng/ml, Pituitary extract (PE) 25 μg/ml and Gentamycin 25 μg/ml. The medium was then removed and replaced by assay medium containing either no added extract or compound (negative control), one of the bacterial extracts of example 3 (L0, BL0, S0 or ES0), or the reference compound (JAK Inhibitor | at 10 μM). Cells were then pre-incubated for 24 hours. The assay medium comprised Keratinocyte SFM supplemented with Gentamycin 25 μg/ml.\nAfter pre-incubation, the assay medium was renewed, the mix of cytokines (IL-4+IL-13+TNF-α +IL-22, each at 10 ng/ml) added and the cells then incubated for 24 hours. Cytokine stimulation induces a phenotype in NHEK which is similar to the one observed during the chronic phase of atopic dermatitis (Bernard et al., 2012). In parallel, non-stimulated controls are performed.\nAll experiments were performed in triplicate (n=3).\nCells from the replicates of the same experimental condition were pooled.\nTotal RNA was extracted with TriPure Isolation Reagent® (Roche Molecular System Inc.) according to the supplier's instruction. The complementary DNA (cDNA) was synthetised by reverse transcription of total RNA in presence of oligo (dT) and Transcriptor Reverse Transcriptase (Roche Molecular System Inc.).\nRT-qPCR (real time quantitative PCR) was used to analyse the expression of markers in total RNA extracted from the cell monolayers of each experimental condition. The LightCycler® system (Roche Molecular System Inc.) was used according to the supplier's instruction,\nTwo reference genes (GAPDH and RPS28) were used in the PCR array for data normalisation because of their constitutive expression. Consequently, the level of expression of the target markers was compared to the mean expression level of these 2 markers for all test conditions.\nDifferent genes markers are reported: • barrier function, differentiation, lipid and desquamation markers: coding gene of Small Proline Rich Protein 1B (SPRR1B), coding gene of Kallikrein Related Peptidase 7 (KLK7), coding gene of Involucrin (IVL), coding gene of Caspase 14 (CASP14), coding gene of Sciellin (SCEL) and coding gene of sulfotransferase family, cytosolic, 2B, member 1 (SULT2B1); • antimicrobial and innate immunity markers: coding gene of serpin peptidase inhibitor, clade B, member 13 (SERPINB13), coding gene of calcium binding protein A7 (S100A7), coding gene of Toll-like receptor 2 (TLR2); • inflammation markers: coding gene of Chemokine (C-C motif) ligand 5 (CCL5), coding gene of Chemokine (C-C motif) ligand 27 (CCL27) and coding gene of interleukin 13 receptor, alpha 2 (IL13RA2)."}, "bacterial strain LMB275": {"system": "bacterial strain LMB275", "test": "Sensitivity of the bacterial strain to antibiotics, disc diffusion method", "type": "cell-based, Aquabacterium strain LMB275", "details": "modified R2A agar, 48 and 72 h at 30° C.", "procedure": "The sensitivity of the bacterial strain to antibiotics was tested by the disc diffusion method after spreading cell suspensions (8.0 McFarland) on modified R2A agar plates. The antibiotics and their concentration used on filter-paper discs for the susceptibility assay are listed in the species definition. The effect of antibiotics on cell growth was assessed after 48 and 72 h at 30° C."}, "[2]": {"details": "NHEK, cytokine mix 10 ng/ml + JAK inhibitor I 10 μM, Mean HK normalisation"}, "[3]": {"details": "NHEK, cytokine mix 10 ng/ml + JAK inhibitor I 10 μM, Mean HK normalisation, 1440 min"}, "[4]": {"details": "cytokine-stimulated NHEK, JAK inhibitor I 10 μM"}, "[5]": {"details": "cytokine-stimulated NHEK, JAK inhibitor I 10 μM, listed as JAK Inhibitor I"}},
  "data": [
    {"compound": "CC(C)(C)c1nc2c3cc[nH]c(=O)c3c3cc(F)ccc3c2[nH]1", "note": "[JAK inhibitor I]", "values": [
      {"measurement": "SPRR1B gene expression", "setting": "[1]; [2]", "result": 557, "unit": "% control"},
      {"measurement": "SULT2B1 gene expression", "setting": "[1]; [2]", "result": 231, "unit": "% control"},
      {"measurement": "CASP14 gene expression", "setting": "[1]; [3]", "result": 199, "unit": "% control"},
      {"measurement": "CCL5 gene expression", "setting": "[1]; [3]", "result": 23, "unit": "% control"},
      {"measurement": "CCL27 gene expression", "setting": "[1]; [3]", "result": 72, "unit": "% control"},
      {"measurement": "IL13RA2 gene expression", "setting": "[1]; [3]", "result": 12, "unit": "% control"},
      {"measurement": "IVL gene expression", "setting": "[1]; [3]", "result": 986, "unit": "% control"},
      {"measurement": "KLK7 gene expression", "setting": "[1]; [3]", "result": 146, "unit": "% control"},
      {"measurement": "S100A7 gene expression", "setting": "[1]; [3]", "result": 94, "unit": "% control"},
      {"measurement": "SCEL gene expression", "setting": "[1]; [3]", "result": 141, "unit": "% control"},
      {"measurement": "SERPINB13 gene expression", "setting": "[1]; [3]", "result": 27, "unit": "% control"},
      {"measurement": "TLR2 gene expression", "setting": "[1]; [3]", "result": 21, "unit": "% control"},
      {"measurement": "expression of antimicrobial and innate immunity markers (in words)", "setting": "[1]; [4]", "result": "decrease"},
      {"measurement": "expression of inflammation markers (in words)", "setting": "[1]; [4]", "result": "decrease"},
      {"measurement": "expression of keratinocyte differentiation markers (in words)", "setting": "[1]; [4]", "result": "increase"},
      {"measurement": "expression of antimicrobial and innate immunity markers (in words)", "setting": "[1]; [5]", "result": "down-regulating"},
      {"measurement": "expression of inflammation markers (in words)", "setting": "[1]; [5]", "result": "down-regulating"}
    ]},
    {"compound": "CC1(C)S[C@@H]2[C@H](NC(=O)[C@H](N)c3ccc(O)cc3)C(=O)N2[C@H]1C(=O)O", "note": "[amoxicillin]", "values": [
      {"measurement": "sensitivity of the bacterial strain to the antibiotic", "setting": "bacterial strain LMB275; disc 30 μg", "result": "resistant"}
    ]},
    {"compound": "CC1(C)S[C@@H]2[C@H](NC(=O)[C@H](N)c3ccccc3)C(=O)N2[C@H]1C(=O)O", "note": "[ampicillin]", "values": [
      {"measurement": "sensitivity of the bacterial strain to the antibiotic", "setting": "bacterial strain LMB275; disc 10 μg", "result": "resistant"}
    ]},
    {"compound": "CO/N=C(\\C(=O)N[C@@H]1C(=O)N2C(C(=O)O)=C(COC(C)=O)CS[C@H]12)c1csc(N)n1", "note": "[cefotaxim]", "values": [
      {"measurement": "sensitivity of the bacterial strain to the antibiotic", "setting": "bacterial strain LMB275; disc 30 μg", "result": "resistant"}
    ]},
    {"compound": "O=C(N[C@H](CO)[C@H](O)c1ccc([N+](=O)[O-])cc1)C(Cl)Cl", "note": "[chloramphenicol]", "values": [
      {"measurement": "sensitivity of the bacterial strain to the antibiotic", "setting": "bacterial strain LMB275; disc 30 μg", "result": "sensitive"}
    ]},
    {"compound": "O=C(O)c1cn(C2CC2)c2cc(N3CCNCC3)c(F)cc2c1=O", "note": "[ciprofloxacin]", "values": [
      {"measurement": "sensitivity of the bacterial strain to the antibiotic", "setting": "bacterial strain LMB275; disc 5 μg", "result": "sensitive"}
    ]},
    {"compound": "CC[C@H]1OC(=O)[C@H](C)[C@@H](O[C@H]2C[C@@](C)(OC)[C@@H](O)[C@H](C)O2)[C@H](C)[C@@H](O[C@@H]2O[C@H](C)C[C@H](N(C)C)[C@H]2O)[C@](C)(O)C[C@@H](C)C(=O)[C@H](C)[C@@H](O)[C@]1(C)O", "note": "[erythromycin]", "values": [
      {"measurement": "sensitivity of the bacterial strain to the antibiotic", "setting": "bacterial strain LMB275; disc 15 μg", "result": "sensitive"}
    ]},
    {"compound": "C[C@@H](O)[C@H]1C(=O)N2C(C(=O)O)=C(SCCN=CN)C[C@H]12", "note": "[imipenem]", "values": [
      {"measurement": "sensitivity of the bacterial strain to the antibiotic", "setting": "bacterial strain LMB275; disc 10 μg", "result": "sensitive"}
    ]},
    {"compound": "NC[C@H]1O[C@H](O[C@H]2[C@H](O)[C@@H](O[C@H]3O[C@H](CO)[C@@H](O)[C@H](N)[C@H]3O)[C@H](N)C[C@@H]2N)[C@H](O)[C@@H](O)[C@@H]1O", "note": "[kanamycin]", "values": [
      {"measurement": "sensitivity of the bacterial strain to the antibiotic", "setting": "bacterial strain LMB275; disc 30 μg", "result": "sensitive"}
    ]},
    {"compound": "CC1COc2c(N3CCN(C)CC3)c(F)cc3c(=O)c(C(=O)O)cn1c23", "note": "(centres unmarked) [ofloxacin]", "values": [
      {"measurement": "sensitivity of the bacterial strain to the antibiotic", "setting": "bacterial strain LMB275; disc 5 μg", "result": "sensitive"}
    ]},
    {"compound": "CC1(C)S[C@@H]2[C@H](NC(=O)Cc3ccccc3)C(=O)N2[C@H]1C(=O)O", "note": "[penicillin]", "values": [
      {"measurement": "sensitivity of the bacterial strain to the antibiotic", "setting": "bacterial strain LMB275; disc 10 UI", "result": "resistant"}
    ]},
    {"compound": "CO[C@H]1/C=C/O[C@@]2(C)Oc3c(C)c(O)c4c(O)c(c(/C=N/N5CCN(C)CC5)c(O)c4c3C2=O)NC(=O)/C(C)=C\\C=C\\[C@H](C)[C@H](O)[C@@H](C)[C@@H](O)[C@@H](C)[C@H](OC(C)=O)[C@@H]1C", "note": "[rifampicin]", "values": [
      {"measurement": "sensitivity of the bacterial strain to the antibiotic", "setting": "bacterial strain LMB275; disc 30 μg", "result": "sensitive"}
    ]},
    {"compound": "[H]/N=C(/N)N[C@H]1[C@H](O)[C@@H](O)[C@H](O[C@@H]2O[C@@H](C)[C@](O)(C=O)[C@H]2O[C@@H]2O[C@@H](CO)[C@H](O)[C@@H](O)[C@@H]2NC)[C@@H](N/C(N)=N\\[H])[C@@H]1O", "note": "[streptomycin]", "values": [
      {"measurement": "sensitivity of the bacterial strain to the antibiotic", "setting": "bacterial strain LMB275; disc 10 μg", "result": "sensitive"}
    ]},
    {"compound": "CN(C)[C@@H]1C(=O)C(C(N)=O)=C(O)[C@@]2(O)C(=O)C3=C(O)c4c(O)cccc4[C@@](C)(O)[C@H]3C[C@@H]12", "note": "[tetracyclin]", "values": [
      {"measurement": "sensitivity of the bacterial strain to the antibiotic", "setting": "bacterial strain LMB275; disc 30 μg", "result": "sensitive"}
    ]},
    {"compound": "CN[C@H](CC(C)C)C(=O)N[C@H]1C(=O)N[C@@H](CC(N)=O)C(=O)N[C@H]2C(=O)N[C@H]3C(=O)N[C@H](C(=O)N[C@H](C(=O)O)c4cc(O)cc(O)c4-c4cc3ccc4O)[C@H](O)c3ccc(c(Cl)c3)Oc3cc2cc(c3O[C@@H]2O[C@H](CO)[C@@H](O)[C@H](O)[C@H]2O[C@H]2C[C@](C)(N)[C@H](O)[C@H](C)O2)Oc2ccc(cc2Cl)[C@H]1O", "note": "[vancomycin]", "values": [
      {"measurement": "sensitivity of the bacterial strain to the antibiotic", "setting": "bacterial strain LMB275; disc 30 μg", "result": "sensitive"}
    ]},
    {"compound": "polymixin B", "values": [
      {"measurement": "sensitivity of the bacterial strain to the antibiotic", "setting": "bacterial strain LMB275; disc 300 UI", "result": "resistant"}
    ]}
  ]
}
